From patent US6472348B1, “Pyridone derivatives and herbicides” (Kumiai Chemical Industry Co., Ltd., priority 1996, dated 2002)

Tested on: monochoria (Mo)
Test: Test Example 1: herbicidal effects by paddy field soil treatment;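 note: grade of growth control; 5 = at least 90%; 4 = 70 to 90%; 3 = 50 to 70%; 2 = 30 to 50%; 1 = 10 to 30%; 0 = under 10%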
Assay type: in vivo
Settings: 100 g of the active ingredient per 10 ares, 21st day after the application, index 0-5 of Table 47
Procedure, shortened: (§1)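 Greenhouse pot test in flooded paddy soil, dosed at 100 g a.i. per 10 ares; effect scored on day 21.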

Row | Structure (SMILES) | Herbicidal effects Mo
1 | CC(C)C(O)c1cc(-c2ccc(C(F)(F)F)n(C)c2=O)c(F)cc1Cl (stereo not drawn) [Compound 1-195] | 5
2 | CCOC(=O)C(C)Nc1cc(-c2ccc(C(F)(F)F)n(C)c2=O)c(F)cc1Cl (stereo not drawn) [1-64] | 5
3 | C#CC(C)Oc1cc(-c2cc(C)c(C(F)(F)F)n(C)c2=O)c(F)cc1Cl (stereo not drawn) [1-78] | 5

Tested on: barnyardgrass (Ec)
Test: as above
Assay type: in vivo
Settings: 100 g of the active ingredient per 10 ares, 21st day after the application, index 0-5 of Table 47
Procedure, shortened: as §1

Row | Structure (SMILES) | Herbicidal effects Ec
4 | CC(C)C(O)c1cc(-c2ccc(C(F)(F)F)n(C)c2=O)c(F)cc1Cl (stereo not drawn) [Compound 1-195] | 5
5 | CCOC(=O)C(C)Nc1cc(-c2ccc(C(F)(F)F)n(C)c2=O)c(F)cc1Cl (stereo not drawn) [1-64] | 5
6 | C#CC(C)Oc1cc(-c2cc(C)c(C(F)(F)F)n(C)c2=O)c(F)cc1Cl (stereo not drawn) [1-78] | 5

Tested on: bulrush (Sc)
Test: as above
Assay type: in vivo
Settings: 100 g of the active ingredient per 10 ares, 21st day after the application, index 0-5 of Table 47
Procedure, shortened: as §1

Row | Structure (SMILES) | Herbicidal effects Sc
7 | CC(C)C(O)c1cc(-c2ccc(C(F)(F)F)n(C)c2=O)c(F)cc1Cl (stereo not drawn) [Compound 1-195] | 5
8 | CCOC(=O)C(C)Nc1cc(-c2ccc(C(F)(F)F)n(C)c2=O)c(F)cc1Cl (stereo not drawn) [1-64] | 5
9 | C#CC(C)Oc1cc(-c2cc(C)c(C(F)(F)F)n(C)c2=O)c(F)cc1Cl (stereo not drawn) [1-78] | 5

Tested on: barnyardgrass (Ec)
Test: Test Example 2: herbicidal effects by upland field soil treatment;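 note: grade of growth control; 5 = at least 90%; 4 = 70 to 90%; 3 = 50 to 70%; 2 = 30 to 50%; 1 = 10 to 30%; 0 = under 10%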
Assay type: in vivo
Settings: 100 g of the active ingredient per 10 ares, 21st day after the application, index 0-5 of Table 47
From the text: (§2) (Test on Herbicidal Effects by Upland Field Soil Treatment)

Row | Structure (SMILES) | Herbicidal effects Ec
10 | CCOC(=O)C(C)Nc1cc(-c2ccc(C(F)(F)F)n(C)c2=O)c(F)cc1Cl (stereo not drawn) [1-64] | 5
11 | C#CC(C)Oc1cc(-c2cc(C)c(C(F)(F)F)n(C)c2=O)c(F)cc1Cl (stereo not drawn) [1-78] | 5

Same assay, conditions: 100 g of the active ingredient per 10 ares, evaluated on the 21st day after application

Row | Structure (SMILES) | Herbicidal effects Ec
12 | CC(C)C(O)c1cc(-c2ccc(C(F)(F)F)n(C)c2=O)c(F)cc1Cl (stereo not drawn) [Compound 1-195] | 5

Tested on: common lambsquarters (Ch)
Test: as above
Assay type: in vivo
Settings: 100 g of the active ingredient per 10 ares, 21st day after the application, index 0-5 of Table 47
From the text: as §2

Row | Structure (SMILES) | Herbicidal effects Ch
13 | CCOC(=O)C(C)Nc1cc(-c2ccc(C(F)(F)F)n(C)c2=O)c(F)cc1Cl (stereo not drawn) [1-64] | 5
14 | C#CC(C)Oc1cc(-c2cc(C)c(C(F)(F)F)n(C)c2=O)c(F)cc1Cl (stereo not drawn) [1-78] | 5

Same assay, conditions: 100 g of the active ingredient per 10 ares, evaluated on the 21st day after application

Row | Structure (SMILES) | Herbicidal effects Ch
15 | CC(C)C(O)c1cc(-c2ccc(C(F)(F)F)n(C)c2=O)c(F)cc1Cl (stereo not drawn) [Compound 1-195] | 5

Tested on: pale smartweed (Po)
Test: as above
Assay type: in vivo
Settings: 100 g of the active ingredient per 10 ares, 21st day after the application, index 0-5 of Table 47
From the text: as §2

Row | Structure (SMILES) | Herbicidal effects Po
16 | CCOC(=O)C(C)Nc1cc(-c2ccc(C(F)(F)F)n(C)c2=O)c(F)cc1Cl (stereo not drawn) [1-64] | 5
17 | C#CC(C)Oc1cc(-c2cc(C)c(C(F)(F)F)n(C)c2=O)c(F)cc1Cl (stereo not drawn) [1-78] | 5

Same assay, conditions: 100 g of the active ingredient per 10 ares, evaluated on the 21st day after application

Row | Structure (SMILES) | Herbicidal effects Po
18 | CC(C)C(O)c1cc(-c2ccc(C(F)(F)F)n(C)c2=O)c(F)cc1Cl (stereo not drawn) [Compound 1-195] | 5

Tested on: slender amaranth (Am)
Test: as above
Assay type: in vivo
Settings: 100 g of the active ingredient per 10 ares, 21st day after the application, index 0-5 of Table 47
From the text: as §2

Row | Structure (SMILES) | Herbicidal effects Am
19 | CCOC(=O)C(C)Nc1cc(-c2ccc(C(F)(F)F)n(C)c2=O)c(F)cc1Cl (stereo not drawn) [1-64] | 5
20 | C#CC(C)Oc1cc(-c2cc(C)c(C(F)(F)F)n(C)c2=O)c(F)cc1Cl (stereo not drawn) [1-78] | 5

Same assay, conditions: 100 g of the active ingredient per 10 ares, evaluated on the 21st day after application

Row | Structure (SMILES) | Herbicidal effects Am
21 | CC(C)C(O)c1cc(-c2ccc(C(F)(F)F)n(C)c2=O)c(F)cc1Cl (stereo not drawn) [Compound 1-195] | 5

Tested on: rice flatsedge (Ci)
Test: as above
Assay type: in vivo
Settings: 100 g of the active ingredient per 10 ares, 21st day after the application, index 0-5 of Table 47
From the text: as §2

Row | Structure (SMILES) | Herbicidal effects Ci
22 | CCOC(=O)C(C)Nc1cc(-c2ccc(C(F)(F)F)n(C)c2=O)c(F)cc1Cl (stereo not drawn) [1-64] | 5
23 | C#CC(C)Oc1cc(-c2cc(C)c(C(F)(F)F)n(C)c2=O)c(F)cc1Cl (stereo not drawn) [1-78] | 5

Same assay, conditions: 100 g of the active ingredient per 10 ares, evaluated on the 21st day after application

Row | Structure (SMILES) | Herbicidal effects Ci
24 | CC(C)C(O)c1cc(-c2ccc(C(F)(F)F)n(C)c2=O)c(F)cc1Cl (stereo not drawn) [Compound 1-195] | 5

Tested on: Digitaria ciliaris (Di)
Test: as above
Assay type: in vivo
Settings: 100 g of the active ingredient per 10 ares, 21st day after the application, index 0-5 of Table 47
From the text: as §2

Row | Structure (SMILES) | Herbicidal effects Di
25 | CCOC(=O)C(C)Nc1cc(-c2ccc(C(F)(F)F)n(C)c2=O)c(F)cc1Cl (stereo not drawn) [1-64] | 5
26 | C#CC(C)Oc1cc(-c2cc(C)c(C(F)(F)F)n(C)c2=O)c(F)cc1Cl (stereo not drawn) [1-78] | 5

Same assay, conditions: 100 g of the active ingredient per 10 ares, evaluated on the 21st day after application

Row | Structure (SMILES) | Herbicidal effects Di
27 | CC(C)C(O)c1cc(-c2ccc(C(F)(F)F)n(C)c2=O)c(F)cc1Cl (stereo not drawn) [Compound 1-195] | 5

Tested on: barnyardgrass (Ec)
Test: Test Example 3: herbicidal effects by upland field foliage treatment
Assay type: in vivo
Design: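 grade of growth control; 5 = at least 90%; 4 = 70 to 90%; 3 = 50 to 70%; 2 = 30 to 50%; 1 = 10 to 30%; 0 = under 10%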
Settings: 100 g active ingredient per 10 ares, evaluated 14th day after treatment
Procedure, shortened: (§3)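 Post-emergence upland foliage test. Seedlings grown 2 weeks under glass in pots (120 cm^2) of sand, seed topped with soil; treated on the foliage, kept in greenhouse, then assessed at day 14 using rating standards.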

Row | Structure (SMILES) | Herbicidal effects Ec
28 | CC(C)C(O)c1cc(-c2ccc(C(F)(F)F)n(C)c2=O)c(F)cc1Cl (stereo not drawn) [Compound 1-195] | 5

Same assay, conditions: 100 g of the active ingredient per 10 ares, evaluated on the 14th day after treatment

Row | Structure (SMILES) | Herbicidal effects Ec
29 | CCOC(=O)C(C)Nc1cc(-c2ccc(C(F)(F)F)n(C)c2=O)c(F)cc1Cl (stereo not drawn) [1-64] | 5
30 | C#CC(C)Oc1cc(-c2cc(C)c(C(F)(F)F)n(C)c2=O)c(F)cc1Cl (stereo not drawn) [1-78] | 5

Tested on: common lambsquarters (Ch)
Test: as above
Assay type: in vivo
Design: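 grade of growth control; 5 = at least 90%; 4 = 70 to 90%; 3 = 50 to 70%; 2 = 30 to 50%; 1 = 10 to 30%; 0 = under 10%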
Settings: 100 g active ingredient per 10 ares, evaluated 14th day after treatment
Procedure, shortened: as §3

Row | Structure (SMILES) | Herbicidal effects Ch
31 | CC(C)C(O)c1cc(-c2ccc(C(F)(F)F)n(C)c2=O)c(F)cc1Cl (stereo not drawn) [Compound 1-195] | 5

Same assay, conditions: 100 g of the active ingredient per 10 ares, evaluated on the 14th day after treatment

Row | Structure (SMILES) | Herbicidal effects Ch
32 | CCOC(=O)C(C)Nc1cc(-c2ccc(C(F)(F)F)n(C)c2=O)c(F)cc1Cl (stereo not drawn) [1-64] | 5
33 | C#CC(C)Oc1cc(-c2cc(C)c(C(F)(F)F)n(C)c2=O)c(F)cc1Cl (stereo not drawn) [1-78] | 5

Tested on: pale smartweed (Po)
Test: as above
Assay type: in vivo
Design: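 grade of growth control; 5 = at least 90%; 4 = 70 to 90%; 3 = 50 to 70%; 2 = 30 to 50%; 1 = 10 to 30%; 0 = under 10%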
Settings: 100 g active ingredient per 10 ares, evaluated 14th day after treatment
Procedure, shortened: as §3

Row | Structure (SMILES) | Herbicidal effects Po
34 | CC(C)C(O)c1cc(-c2ccc(C(F)(F)F)n(C)c2=O)c(F)cc1Cl (stereo not drawn) [Compound 1-195] | 5

Same assay, conditions: 100 g of the active ingredient per 10 ares, evaluated on the 14th day after treatment

Row | Structure (SMILES) | Herbicidal effects Po
35 | CCOC(=O)C(C)Nc1cc(-c2ccc(C(F)(F)F)n(C)c2=O)c(F)cc1Cl (stereo not drawn) [1-64] | 5
36 | C#CC(C)Oc1cc(-c2cc(C)c(C(F)(F)F)n(C)c2=O)c(F)cc1Cl (stereo not drawn) [1-78] | 5

Tested on: slender amaranth (Am)
Test: as above
Assay type: in vivo
Design: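 grade of growth control; 5 = at least 90%; 4 = 70 to 90%; 3 = 50 to 70%; 2 = 30 to 50%; 1 = 10 to 30%; 0 = under 10%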
Settings: 100 g active ingredient per 10 ares, evaluated 14th day after treatment
Procedure, shortened: as §3

Row | Structure (SMILES) | Herbicidal effects Am
37 | CC(C)C(O)c1cc(-c2ccc(C(F)(F)F)n(C)c2=O)c(F)cc1Cl (stereo not drawn) [Compound 1-195] | 5

Same assay, conditions: 100 g of the active ingredient per 10 ares, evaluated on the 14th day after treatment

Row | Structure (SMILES) | Herbicidal effects Am
38 | CCOC(=O)C(C)Nc1cc(-c2ccc(C(F)(F)F)n(C)c2=O)c(F)cc1Cl (stereo not drawn) [1-64] | 5
39 | C#CC(C)Oc1cc(-c2cc(C)c(C(F)(F)F)n(C)c2=O)c(F)cc1Cl (stereo not drawn) [1-78] | 5

Tested on: rice flatsedge (Ci)
Test: as above
Assay type: in vivo
Design: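 grade of growth control; 5 = at least 90%; 4 = 70 to 90%; 3 = 50 to 70%; 2 = 30 to 50%; 1 = 10 to 30%; 0 = under 10%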
Settings: 100 g active ingredient per 10 ares, evaluated 14th day after treatment
Procedure, shortened: as §3

Row | Structure (SMILES) | Herbicidal effects Ci
40 | CC(C)C(O)c1cc(-c2ccc(C(F)(F)F)n(C)c2=O)c(F)cc1Cl (stereo not drawn) [Compound 1-195] | 5

Same assay, conditions: 100 g of the active ingredient per 10 ares, evaluated on the 14th day after treatment

Row | Structure (SMILES) | Herbicidal effects Ci
41 | CCOC(=O)C(C)Nc1cc(-c2ccc(C(F)(F)F)n(C)c2=O)c(F)cc1Cl (stereo not drawn) [1-64] | 5
42 | C#CC(C)Oc1cc(-c2cc(C)c(C(F)(F)F)n(C)c2=O)c(F)cc1Cl (stereo not drawn) [1-78] | 5

Tested on: Diaitaria ciliaris (Di)
Test: as above
Assay type: in vivo
Design: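 grade of growth control; 5 = at least 90%; 4 = 70 to 90%; 3 = 50 to 70%; 2 = 30 to 50%; 1 = 10 to 30%; 0 = under 10%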
Settings: 100 g active ingredient per 10 ares, evaluated 14th day after treatment
Procedure, shortened: as §3

Row | Structure (SMILES) | Herbicidal effects Di
43 | CC(C)C(O)c1cc(-c2ccc(C(F)(F)F)n(C)c2=O)c(F)cc1Cl (stereo not drawn) [Compound 1-195] | 5

Same assay, conditions: 100 g of the active ingredient per 10 ares, evaluated on the 14th day after treatment

Row | Structure (SMILES) | Herbicidal effects Di
44 | CCOC(=O)C(C)Nc1cc(-c2ccc(C(F)(F)F)n(C)c2=O)c(F)cc1Cl (stereo not drawn) [1-64] | 5
45 | C#CC(C)Oc1cc(-c2cc(C)c(C(F)(F)F)n(C)c2=O)c(F)cc1Cl (stereo not drawn) [1-78] | 5
